Measured values as given in US20030232851A1, “Viral treatment” (The Procter & Gamble Company, priority 1999, published 2003).

What was measured:
HIV-1 cell line, CEMIIIB = experiment: Long term in vitro study, CEMIIIB, reverse transcriptase; format: cell-based; conditions: run through 242 days
Experimental: (§1) A microtiter-based reveres transcriptase (RT) reaction is utilized (Buckheit et al (1991) AIDS Research and Human Retroviruses 7:295-302). Tritiated thymidine triphosphate (NEN)(TTP) is resuspended in distilled water at 5 Ci/ml. Poly rA and oligo dT are prepared as a stock solution which is kept at −20° C. The RT reaction buffer is prepared fresh on a daily basis and consists of 125 μl 1M EGTA, 125 μl water, 125 μl Triton X-100, 50 μl Tris (pH 7.4), 50 μl 1 MDDT, and 40 μl 1M MgCl2. These three solutions are mixed together in a ratio of 1 part TTP, 2.5 parts poly rA:oligo dT, 2.5 parts reaction buffer and 4 parts distilled water. Ten microliters of this reaction mixture is placed in a round bottom microtiter place and 15 μl of virus containing supernatant is added and mixed. The plate is incubated at 37° C. for 60 minutes. Following reaction, the reaction volume is spotted onto filter mats, washed 6 times for 5 minutes each in a 5% sodium phosphate buffer, 2 times for 1 minute each in distilled water, 2 times for 1 minute each in 70% ethanol, and then dried. The dried filter mat is placed in a plastic sample bag, Betaplate scintillation fluid is added and the bag is heat sealed. Incorporated radioactivity is quantified utilizing a Wallac Microbeta scintillation counter.
(§2) Acute infection of most established human cell lines with HIV-1 results in the eventual establishment of a constitutive virus-producing chronically infected cell line. The cells can be passaged for long periods of time in culture without loss of virus production. These cells may be utilized to evaluate the effects of anti-HIV compounds on syncytium formation or to evaluate the effects of anti-HIV compounds on levels of virus production from these cells. […] Each of the cells contains an integrated HIV genome or provirus. Chronically infected CEM, H9 and U937 cell lines have been prepared and cultured by Southern Research Institute, Frederick Md. and are available from them.
(§3) CEM-SS cells chronically infected with HIV isolate, for example SKI (CEM-SKI) are cultured in RPMI1640 tissue culture medium supplemented with 10% fetal bovine serum and antibiotics. […] CEM-SKI or other infected cells with no added drug are used as the control cells. Cells are allowed to grow to a density of approximately 1×10^6 cells/ml and are then passaged at a 1:10 dilution. […] The drug concentration in the flask is then increased two-fold and the cells maintained as above.
(§4) The cell populations contain integrated copies of the HIV genome and constitutively produce HIV at relatively high levels or are latently infected and only produce virus after stimulation with phorbol esters, tumor necrosis factor or IL6 (U1 and ACH2). Reductions in virus products were observed when quantifying supernatant reverse transcriptase activity,
A long term in vitro study of 2-(2-thienyl)-imidazolo [4,5-b]pyridine against an HIV-1 cell line, CEMIIIB was conducted at three different levels. The results with CEMIIIB cells were reported at weekly intervals. The CEMIIIB is a viral strain of the CEMSS cell line and is a chronic HIV cell line.

HIV-2 cell line, CEMROD = experiment: Long term in vitro study, CEMROD, reverse transcriptase; format: cell-based
Experimental: as §1, §2, §3, §4
A long term in vitro study of 2-(2-thienyl)-imidazolo [4,5-b]pyridine against an HIV-2 cell line, CEMROD was conducted at three different levels. The results with CEMROD cells were reported at weekly intervals.

SMILES: c1csc(-c2nc3cccnc3[nH]2)c1 [2-(2-thienyl)-imidazolo [4,5-b]pyridine]
- reverse transcriptase data on continuation (in words) (HIV-1 cell line, CEMIIIB): data remained consistent
- reverse transcriptase data (HIV-2 cell line, CEMROD; 7 μg/ml, day 4): 8506
- reverse transcriptase data (HIV-2 cell line, CEMROD; 7 μg/ml, day 11): 9471
- reverse transcriptase data (HIV-2 cell line, CEMROD; 7 μg/ml, day 18): 6147
- reverse transcriptase data (HIV-2 cell line, CEMROD; 7 μg/ml, day 25): 6302
- reverse transcriptase data (HIV-2 cell line, CEMROD; 7 μg/ml, day 32): 5482
- reverse transcriptase data (HIV-2 cell line, CEMROD; 7 μg/ml, day 39): 7253
- reverse transcriptase data (HIV-2 cell line, CEMROD; 7 μg/ml, day 46): 4822
- reverse transcriptase data (HIV-2 cell line, CEMROD; 7 μg/ml, day 53): 7257
- reverse transcriptase data (HIV-2 cell line, CEMROD; 7 μg/ml, day 60): 7019
- reverse transcriptase data (HIV-2 cell line, CEMROD; 7 μg/ml, day 67): 7215
- reverse transcriptase data (HIV-2 cell line, CEMROD; 7 μg/ml, day 71): 9052
- reverse transcriptase data (HIV-2 cell line, CEMROD; 7 μg/ml, day 74): 6240
- reverse transcriptase data (HIV-2 cell line, CEMROD; 7 μg/ml, day 88): 10053
- reverse transcriptase data (HIV-2 cell line, CEMROD; 7 μg/ml, day 95): 7482
- reverse transcriptase data (HIV-2 cell line, CEMROD; 7 μg/ml, day 102): 8023
- reverse transcriptase data (HIV-2 cell line, CEMROD; 7 μg/ml, day 109): 13890
- reverse transcriptase data (HIV-2 cell line, CEMROD; 15 μg/ml, day 4): 7447
- reverse transcriptase data (HIV-2 cell line, CEMROD; 15 μg/ml, day 11): 8887
- reverse transcriptase data (HIV-2 cell line, CEMROD; 15 μg/ml, day 18): 5399
- reverse transcriptase data (HIV-2 cell line, CEMROD; 15 μg/ml, day 25): 5040
- reverse transcriptase data (HIV-2 cell line, CEMROD; 15 μg/ml, day 32): 4695
- reverse transcriptase data (HIV-2 cell line, CEMROD; 15 μg/ml, day 39): 6277
- reverse transcriptase data (HIV-2 cell line, CEMROD; 15 μg/ml, day 46): 2165
- reverse transcriptase data (HIV-2 cell line, CEMROD; 15 μg/ml, day 53): 6546
- reverse transcriptase data (HIV-2 cell line, CEMROD; 15 μg/ml, day 60): 5940
- reverse transcriptase data (HIV-2 cell line, CEMROD; 15 μg/ml, day 67): 3215
- reverse transcriptase data (HIV-2 cell line, CEMROD; 15 μg/ml, day 71): 7256
- reverse transcriptase data (HIV-2 cell line, CEMROD; 15 μg/ml, day 74): 4687
- reverse transcriptase data (HIV-2 cell line, CEMROD; 15 μg/ml, day 88): 8277
- reverse transcriptase data (HIV-2 cell line, CEMROD; 15 μg/ml, day 95): 5116
- reverse transcriptase data (HIV-2 cell line, CEMROD; 15 μg/ml, day 102): 6546
- reverse transcriptase data (HIV-2 cell line, CEMROD; 15 μg/ml, day 109): 10349
- reverse transcriptase data (HIV-2 cell line, CEMROD; 30 μg/ml, day 4): 4426
- reverse transcriptase data (HIV-2 cell line, CEMROD; 30 μg/ml, day 11): 7092
- reverse transcriptase data (HIV-2 cell line, CEMROD; 30 μg/ml, day 18): 3322
- reverse transcriptase data (HIV-2 cell line, CEMROD; 30 μg/ml, day 25): 3212
- reverse transcriptase data (HIV-2 cell line, CEMROD; 30 μg/ml, day 32): 3960
- reverse transcriptase data (HIV-2 cell line, CEMROD; 30 μg/ml, day 39): 4543
- reverse transcriptase data (HIV-2 cell line, CEMROD; 30 μg/ml, day 46): 1245
- reverse transcriptase data (HIV-2 cell line, CEMROD; 30 μg/ml, day 53): 2402
- reverse transcriptase data (HIV-2 cell line, CEMROD; 30 μg/ml, day 60): 2410
- reverse transcriptase data (HIV-2 cell line, CEMROD; 30 μg/ml, day 67): 1843
- reverse transcriptase data (HIV-2 cell line, CEMROD; 30 μg/ml, day 71): 2121
- reverse transcriptase data (HIV-2 cell line, CEMROD; 30 μg/ml, day 74): 1285
- reverse transcriptase data (HIV-2 cell line, CEMROD; 30 μg/ml, day 88): 2543
- reverse transcriptase data (HIV-2 cell line, CEMROD; 30 μg/ml, day 95): 2245
- reverse transcriptase data (HIV-2 cell line, CEMROD; 30 μg/ml, day 102): 2402
- reverse transcriptase data (HIV-2 cell line, CEMROD; 30 μg/ml, day 109): 1140
- reverse transcriptase data on continuation (in words) (HIV-2 cell line, CEMROD; run through 242 days): data remained consistent
